Tests used:
PNMT mRNA = conditions: intact rats; cited from earlier work
[1] = tested on: metastatic pheochromocytoma associated with ectopic ACTH secretion; experiment: Case of a person with metastatic pheochromocytoma and Cushing syndrome given mifepristone (Example 1); type: in vivo, human; conditions: for catecholamine excess symptoms (palpitations, tremors and panic attacks): despite high dose of atenolol and phenoxybenzamine, before mifepristone
Protocol: A person with metastatic pheochromocytoma associated with ectopic ACTH secretion unresponsive to conventional chemotherapy with CVD (cyclophosphamide, vincristine and dacarbazine) and Sunitinib (tyrosine kinase inhibitors) was enrolled in a phase 2 study with a somatostatin analog. […] At the same time the diagnosis of Cushing syndrome was made and 300 mg of Mifepristone was added to their regimen and the dose was further increased to 600 mg daily two weeks later. […] The plasma epinephrine level after 2 weeks of therapy with mifepristone was decreased by 50%, and the plasma metanephrine level was decreased by 25% after 9 weeks of therapy.

[2] = tested on: metastatic or unresectable catecholamine-secreting tumor; experiment: Patient with metastatic or unresectable catecholamine-secreting tumor: blood catecholamine level after five weeks of treatment (Examples 2-77); type: in vivo, human
Protocol: (§1) A patient having a metastatic or unresectable catecholamine-secreting tumor, who is not in need of treatment with a glucocorticoid receptor antagonist, and is not receiving exogenous glucocorticoid receptor agonist treatment, is administered an effective amount of mifepristone at a daily dose of 50 mg/kg/day.
as §1, with “20” for “50”
as §1, with “15” for “50”
as §1, with “10” for “50”
as §1, with “5” for “50”
as §1, with “mg/kg/day, and is also administered chemotherapy.” for “mg/kg/day.”
as §1, with “20 mg/kg/day, and is also administered chemotherapy.” for “50 mg/kg/day.”
as §1, with “15 mg/kg/day, and is also administered chemotherapy.” for “50 mg/kg/day.”
as §1, with “10 mg/kg/day, and is also administered chemotherapy.” for “50 mg/kg/day.”
as §1, with “5 mg/kg/day, and is also administered chemotherapy.” for “50 mg/kg/day.”
as §1, with “mg/kg/day, and is also administered an adrenergic antagonist. […]” for “mg/kg/day.”

[3] = tested on: rat phenylethanolamine N-methyltransferase (PNMT) gene promoter; conditions: RU486 10 μM; cited from earlier work
[4] = tested on: pheochromocytoma crisis (PC); conditions: cited from earlier work
[5] = tested on: PNMT mRNA and enzyme expression; conditions: rats, depletion of corticosteroids by hypophysectomy; cited from earlier work
[6] = after 3 months of therapy with mifepristone
[7] = one week after the discontinuation of mifepristone

## CC#CC1(O)CC[C@H]2[C@@H]3C=C(C)C4=CC(=O)C=C[C@]4(C)[C@H]3C(O)C[C@@]21C (some centres unmarked) [RU28362, 11,17-dihydroxy-6-methyl-17-(1-propynyl)androsta-1,4,6-triene-3-one]
PNMT mRNA
  PNMT mRNA levels: rise markedly

## CC#C[C@]1(O)CC[C@H]2[C@@H]3CCC4=CC(=O)CCC4=C3[C@@H](c3ccc(N(C)C)cc3)C[C@@]21C [mifepristone, 11β-(4-dimethylaminophenyl)-17β-hydroxy-17α-(1-propynyl)-estra-4,9-dien-3-one]
[1]; after 2 weeks of therapy with mifepristone (300 mg)
  plasma epinephrine level decreased by: 50%
[1]; [6]
  metanephrine level: slightly elevated
  symptoms of catecholamine excess: controlled
[1]; after 3 months of therapy, mifepristone temporarily withheld
  adverse event: vaginal bleeding
[1]; after 9 weeks of therapy (300 mg, increased to 600 mg daily two weeks later)
  plasma metanephrine level decreased by: 25%
[1]; [7]
  metanephrine measurement after discontinuation compared to the level during mifepristone dosing: fourfold increase
  symptoms of catecholamine excess after discontinuation: worse symptoms of catecholamine excess
[1]; one week after the institution of mifepristone (300 mg), added to somatostatin analog, atenolol, phenoxybenzamine
  symptoms related to cortisol excess as well as to catecholamine excess: dramatic improvement
[2]; daily dose of 1 mg/kg/day, also administered somatostatin
  blood level of a catecholamine after five weeks of treatment as compared to the initial level: lower
[2]; daily dose of 5 mg/kg/day
  blood level of a catecholamine after five weeks of treatment as compared to the initial level: lower
[2]; daily dose of 5 mg/kg/day, also administered a somatostatin analog
  blood level of a catecholamine after five weeks of treatment as compared to the initial level: lower
[2]; daily dose of 5 mg/kg/day, also administered an adrenergic antagonist
  blood level of a catecholamine after five weeks of treatment as compared to the initial level: lower
[2]; daily dose of 5 mg/kg/day, also administered chemotherapy
  blood level of a catecholamine after five weeks of treatment as compared to the initial level: lower
[2]; daily dose of 5 mg/kg/day, also administered somatostatin
  blood level of a catecholamine after five weeks of treatment as compared to the initial level: lower
[2]; daily dose of 5 mg/kg/day, also receives Peptide Receptor Radionuclide Therapy
  blood level of a catecholamine after five weeks of treatment as compared to the initial level: lower
[2]; daily dose of 10 mg/kg/day
  blood level of a catecholamine after five weeks of treatment as compared to the initial level: lower
[2]; daily dose of 10 mg/kg/day, also administered a somatostatin analog
  blood level of a catecholamine after five weeks of treatment as compared to the initial level: lower
[2]; daily dose of 10 mg/kg/day, also administered an adrenergic antagonist
  blood level of a catecholamine after five weeks of treatment as compared to the initial level: lower
[2]; daily dose of 10 mg/kg/day, also administered chemotherapy
  blood level of a catecholamine after five weeks of treatment as compared to the initial level: lower
[2]; daily dose of 10 mg/kg/day, also administered somatostatin
  blood level of a catecholamine after five weeks of treatment as compared to the initial level: lower
[2]; daily dose of 10 mg/kg/day, also receives Peptide Receptor Radionuclide Therapy
  blood level of a catecholamine after five weeks of treatment as compared to the initial level: lower
[2]; daily dose of 15 mg/kg/day
  blood level of a catecholamine after five weeks of treatment as compared to the initial level: lower
[2]; daily dose of 15 mg/kg/day, also administered a somatostatin analog
  blood level of a catecholamine after five weeks of treatment as compared to the initial level: lower
[2]; daily dose of 15 mg/kg/day, also administered chemotherapy
  blood level of a catecholamine after five weeks of treatment as compared to the initial level: lower
[2]; daily dose of 15 mg/kg/day, also receives Peptide Receptor Radionuclide Therapy
  blood level of a catecholamine after five weeks of treatment as compared to the initial level: lower
[2]; daily dose of 20 mg/kg/day
  blood level of a catecholamine after five weeks of treatment as compared to the initial level: lower
[2]; daily dose of 20 mg/kg/day, also administered a somatostatin analog
  blood level of a catecholamine after five weeks of treatment as compared to the initial level: lower
[2]; daily dose of 20 mg/kg/day, also administered an adrenergic antagonist
  blood level of a catecholamine after five weeks of treatment as compared to the initial level: lower
[2]; daily dose of 20 mg/kg/day, also administered an adrenergic antagonist and Peptide Receptor Radionuclide Therapy
  blood level of a catecholamine after five weeks of treatment as compared to the initial level: lower
[2]; daily dose of 20 mg/kg/day, also administered chemotherapy
  blood level of a catecholamine after five weeks of treatment as compared to the initial level: lower
[2]; daily dose of 20 mg/kg/day, also administered chemotherapy and a somatostatin analog
  blood level of a catecholamine after five weeks of treatment as compared to the initial level: lower
[2]; daily dose of 20 mg/kg/day, also administered chemotherapy and an adrenergic antagonist
  blood level of a catecholamine after five weeks of treatment as compared to the initial level: lower
[2]; daily dose of 20 mg/kg/day, also administered chemotherapy and somatostatin
  blood level of a catecholamine after five weeks of treatment as compared to the initial level: lower
[2]; daily dose of 20 mg/kg/day, also administered somatostatin
  blood level of a catecholamine after five weeks of treatment as compared to the initial level: lower
[2]; daily dose of 20 mg/kg/day, also receives Peptide Receptor Radionuclide Therapy
  blood level of a catecholamine after five weeks of treatment as compared to the initial level: lower
[2]; daily dose of 50 mg/kg/day
  blood level of a catecholamine after five weeks of treatment as compared to the initial level: lower
[2]; daily dose of 50 mg/kg/day, also administered an adrenergic antagonist
  blood level of a catecholamine after five weeks of treatment as compared to the initial level: lower
[2]; daily dose of 50 mg/kg/day, also administered chemotherapy
  blood level of a catecholamine after five weeks of treatment as compared to the initial level: lower
[2]; single pharmaceutical composition comprising 50 mg mifepristone and a somatostatin analog, daily for five weeks
  blood level of a catecholamine after five weeks of treatment as compared to the initial level: lower
[2]; single pharmaceutical composition comprising 50 mg mifepristone and an adrenergic antagonist, daily for five weeks, also chemotherapy
  blood level of a catecholamine after five weeks of treatment as compared to the initial level: lower
[2]; single pharmaceutical composition comprising 50 mg mifepristone and somatostatin, daily for five weeks
  blood level of a catecholamine after five weeks of treatment as compared to the initial level: lower
[2]; single pharmaceutical composition comprising 100 mg mifepristone and a somatostatin analog, daily for five weeks
  blood level of a catecholamine after five weeks of treatment as compared to the initial level: lower
[2]; single pharmaceutical composition comprising 100 mg mifepristone and an adrenergic antagonist, daily for five weeks
  blood level of a catecholamine after five weeks of treatment as compared to the initial level: lower
[2]; single pharmaceutical composition comprising 100 mg mifepristone and an adrenergic antagonist, daily for five weeks, also chemotherapy
  blood level of a catecholamine after five weeks of treatment as compared to the initial level: lower
[2]; single pharmaceutical composition comprising 100 mg mifepristone and somatostatin, daily for five weeks
  blood level of a catecholamine after five weeks of treatment as compared to the initial level: lower
[2]; single pharmaceutical composition comprising 300 mg mifepristone and a somatostatin analog, daily for five weeks
  blood level of a catecholamine after five weeks of treatment as compared to the initial level: lower
[2]; single pharmaceutical composition comprising 300 mg mifepristone and an adrenergic antagonist, daily for five weeks
  blood level of a catecholamine after five weeks of treatment as compared to the initial level: lower
[2]; single pharmaceutical composition comprising 300 mg mifepristone and an adrenergic antagonist, daily for five weeks, also chemotherapy
  blood level of a catecholamine after five weeks of treatment as compared to the initial level: lower
[2]; single pharmaceutical composition comprising 300 mg mifepristone and somatostatin, daily for five weeks
  blood level of a catecholamine after five weeks of treatment as compared to the initial level: lower
[3]
  inhibition of dexamethasone (1 μM) activation of the PNMT promoter: fully inhibited

## CC(C)NCC(O)COc1ccc(CC(N)=O)cc1 (centres unmarked) [atenolol]
[1]
  catecholamine excess symptoms (palpitations, tremors and panic attacks): continued to experience significant catecholamine excess symptoms

## C[C@@H]1C[C@H]2[C@@H]3CCC4=CC(=O)C=C[C@]4(C)[C@@]3(F)[C@@H](O)C[C@]2(C)[C@@]1(O)C(=O)CO [dexamethasone]
[4]; 1 mg given as a DST in patients with pheochromocytoma
  pheochromocytoma crisis cases: no cases have been reported
[4]; larger doses, as low as 2 mg
  pheochromocytoma crisis: may trigger a PC

## CC(COc1ccccc1)N(CCCl)Cc1ccccc1 (centres unmarked) [phenoxybenzamine]
[1]
  catecholamine excess symptoms (palpitations, tremors and panic attacks): continued to experience significant catecholamine excess symptoms

## adrenocorticotropin: stimulates endogenous glucocorticoid production (SYSMEHFRWGKPVGKKRRPVKVYPNGAEDESAEAFPLEF; Corticotropin; UniProt P01189 138-176, looked up)
[5]
  decrease of PNMT mRNA and enzyme expression after hypophysectomy: reversed

— patent US11045482B2, “Use of glucocorticoid receptor modulators in the treatment of catecholamine-secreting tumors” (Corcept Therapeutics, Inc., priority 2017, dated 2021)
